Reference: PubChem BioAssay AID1259407 (Chemical Carcinogenesis Research Information System (CCRIS), 2018)
Activity calls are given as the source filed them. How the calls were made is not given here.

System: CCRIS mutagenicity, Ames/micronucleus/aberration tests
Assay: CCRIS mutagenicity studies

## COc1ccc(N)cc1
End Point: IN VITRO CHROMOSOMAL ABERRATIONS, Test System: CHINESE HAMSTER OVARY CELLS, Metabolic Activation: NONE
  mutagenic call: active; positive
End Point: IN VITRO CHROMOSOMAL ABERRATIONS, Test System: CHINESE HAMSTER OVARY CELLS, Metabolic Activation: RAT, LIVER, S-9, AROCLOR 1254
  mutagenic call: active; positive
End Point: MORPHOLOGICAL TRANSFORMATION, Test System: SYRIAN HAMSTER EMBRYO CELLS (SHE), Metabolic Activation: NONE
  mutagenic call: active; positive
Test System: AMES SALMONELLA TYPHIMURIUM, Strain/Indicator: TA98, Metabolic Activation: HAMSTER, LIVER, S-9, AROCLOR 1254 (30%), Method: PREINCUBATION
  mutagenic call: inactive; negative
Test System: AMES SALMONELLA TYPHIMURIUM, Strain/Indicator: TA98, Metabolic Activation: HAMSTER, LIVER, S-9, AROCLOR 1254, Method: STANDARD PLATE
  mutagenic call: inactive; negative
Test System: AMES SALMONELLA TYPHIMURIUM, Strain/Indicator: TA98, Metabolic Activation: HAMSTER, LIVER, S-9, Method: STANDARD PLATE
  mutagenic call: inactive; negative
Test System: AMES SALMONELLA TYPHIMURIUM, Strain/Indicator: TA98, Metabolic Activation: MOUSE, LIVER, S-9, AROCLOR 1254, Method: STANDARD PLATE
  mutagenic call: inactive; negative
Test System: AMES SALMONELLA TYPHIMURIUM, Strain/Indicator: TA98, Metabolic Activation: MOUSE, LIVER, S-9, Method: STANDARD PLATE
  mutagenic call: inactive; negative
Test System: AMES SALMONELLA TYPHIMURIUM, Strain/Indicator: TA98, Metabolic Activation: NONE, Method: PREINCUBATION
  mutagenic call: inactive; negative
Test System: AMES SALMONELLA TYPHIMURIUM, Strain/Indicator: TA98, Metabolic Activation: NONE, Method: STANDARD PLATE
  mutagenic call: inactive; negative
Test System: AMES SALMONELLA TYPHIMURIUM, Strain/Indicator: TA98, Metabolic Activation: RAT LIVER S-9, PHENOBARBITAL AND BETA-NAPHTHOFLAVONE, Method: PREINCUBATION
  mutagenic call: inactive; negative
Test System: AMES SALMONELLA TYPHIMURIUM, Strain/Indicator: TA98, Metabolic Activation: RAT, LIVER, S-9, AROCLOR 1254 (30%), Method: PREINCUBATION
  mutagenic call: inactive; negative
Test System: AMES SALMONELLA TYPHIMURIUM, Strain/Indicator: TA98, Metabolic Activation: RAT, LIVER, S-9, AROCLOR 1254, Method: STANDARD PLATE
  mutagenic call: inactive; negative
Test System: AMES SALMONELLA TYPHIMURIUM, Strain/Indicator: TA98, Metabolic Activation: RAT, LIVER, S-9, Method: STANDARD PLATE
  mutagenic call: inactive; negative
Test System: AMES SALMONELLA TYPHIMURIUM, Strain/Indicator: TA100, Metabolic Activation: HAMSTER, LIVER, S-9, AROCLOR 1254 (30%), Method: PREINCUBATION
  mutagenic call: active; positive
Test System: AMES SALMONELLA TYPHIMURIUM, Strain/Indicator: TA100, Metabolic Activation: NONE, Method: PREINCUBATION
  mutagenic call: inactive; negative
Test System: AMES SALMONELLA TYPHIMURIUM, Strain/Indicator: TA100, Metabolic Activation: NONE, Method: STANDARD PLATE
  mutagenic call: inactive; negative
Test System: AMES SALMONELLA TYPHIMURIUM, Strain/Indicator: TA100, Metabolic Activation: RAT LIVER S-9, PHENOBARBITAL AND BETA-NAPHTHOFLAVONE, Method: PREINCUBATION
  mutagenic call: inactive; negative
Test System: AMES SALMONELLA TYPHIMURIUM, Strain/Indicator: TA100, Metabolic Activation: RAT, LIVER, S-9, AROCLOR 1254 (30%), Method: PREINCUBATION
  mutagenic call: inactive; negative
Test System: AMES SALMONELLA TYPHIMURIUM, Strain/Indicator: TA102, Metabolic Activation: NONE, Method: PREINCUBATION
  mutagenic call: inactive; negative
Test System: AMES SALMONELLA TYPHIMURIUM, Strain/Indicator: TA102, Metabolic Activation: NONE, Method: STANDARD PLATE
  mutagenic call: inactive; negative
Test System: AMES SALMONELLA TYPHIMURIUM, Strain/Indicator: TA102, Metabolic Activation: RAT LIVER S-9, PHENOBARBITAL AND BETA-NAPHTHOFLAVONE, Method: PREINCUBATION
  mutagenic call: inactive; negative
Test System: AMES SALMONELLA TYPHIMURIUM, Strain/Indicator: TA104, Metabolic Activation: NONE, Method: PREINCUBATION
  mutagenic call: inactive; negative
Test System: AMES SALMONELLA TYPHIMURIUM, Strain/Indicator: TA104, Metabolic Activation: RAT LIVER S-9, PHENOBARBITAL AND BETA-NAPHTHOFLAVONE, Method: PREINCUBATION
  mutagenic call: inactive; negative
Test System: AMES SALMONELLA TYPHIMURIUM, Strain/Indicator: TA1535, Metabolic Activation: HAMSTER, LIVER, S-9, AROCLOR 1254, Method: STANDARD PLATE
  mutagenic call: inactive; negative
Test System: AMES SALMONELLA TYPHIMURIUM, Strain/Indicator: TA1535, Metabolic Activation: HAMSTER, LIVER, S-9, Method: STANDARD PLATE
  mutagenic call: inactive; negative
Test System: AMES SALMONELLA TYPHIMURIUM, Strain/Indicator: TA1535, Metabolic Activation: MOUSE, LIVER, S-9, AROCLOR 1254, Method: STANDARD PLATE
  mutagenic call: inactive; negative
Test System: AMES SALMONELLA TYPHIMURIUM, Strain/Indicator: TA1535, Metabolic Activation: MOUSE, LIVER, S-9, Method: STANDARD PLATE
  mutagenic call: inactive; negative
Test System: AMES SALMONELLA TYPHIMURIUM, Strain/Indicator: TA1535, Metabolic Activation: NONE, Method: PREINCUBATION
  mutagenic call: inactive; negative
Test System: AMES SALMONELLA TYPHIMURIUM, Strain/Indicator: TA1535, Metabolic Activation: NONE, Method: STANDARD PLATE
  mutagenic call: inactive; negative
Test System: AMES SALMONELLA TYPHIMURIUM, Strain/Indicator: TA1535, Metabolic Activation: RAT LIVER S-9, PHENOBARBITAL AND BETA-NAPHTHOFLAVONE, Method: PREINCUBATION
  mutagenic call: inactive; negative
Test System: AMES SALMONELLA TYPHIMURIUM, Strain/Indicator: TA1535, Metabolic Activation: RAT, LIVER, S-9, AROCLOR 1254, Method: STANDARD PLATE
  mutagenic call: inactive; negative
